One assay has as its target T1, CB1 receptor (Homo sapiens, UniProt P21554).
T1 construct: expressed in transfected cells
Put plainly: Binding assay for CB1 agonists or inverse agonists (SK-N-MC membranes, [3H]-CP-55,940). The conditions noted are these: for inhibition at 1 µM: read-out: CB1 receptor binding percent inhibition, test concentration 1 μM (footnote 1); for inhibition at 0.5 µM: read-out: CB1 receptor binding percent inhibition, test concentration 0.5 μM (footnote 10); for inhibition at 0.002 µM: read-out: CB1 receptor binding percent inhibition, test concentration 0.002 μM (footnote 11); for CB1 receptor binding percent inhibition: test concentration not stated. In short, it runs like this: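 Radioligand displacement: [3H]-CP-55,940 at […], 90 min at 30° C, pH 7.5 Tris buffer with 0.5 mg/mL fatty-acid-free BSA, using semi-purified membranes of human-CB1-transfected SK-N-MC cells. Bound counts collected on GF/C filters, 10 uM WIN 55,212 for non-specific; IC50 from percent inhibition over several concentrations.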

The target of a further assay is T2, CB2 receptor (Homo sapiens, UniProt P34972).
T2 construct: expressed in transfected cells
T2 sequence (P34972 whole entry): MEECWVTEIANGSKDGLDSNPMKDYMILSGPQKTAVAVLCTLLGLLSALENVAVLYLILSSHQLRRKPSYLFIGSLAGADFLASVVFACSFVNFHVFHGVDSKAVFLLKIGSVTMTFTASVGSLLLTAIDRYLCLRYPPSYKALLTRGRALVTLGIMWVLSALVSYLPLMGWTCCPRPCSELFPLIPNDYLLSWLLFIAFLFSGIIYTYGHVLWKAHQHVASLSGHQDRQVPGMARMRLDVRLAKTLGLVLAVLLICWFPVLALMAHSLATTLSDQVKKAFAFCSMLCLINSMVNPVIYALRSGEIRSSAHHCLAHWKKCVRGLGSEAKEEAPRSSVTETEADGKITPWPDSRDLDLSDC
Briefly: Binding assay for CB2 agonists or inverse agonists (SK-N-MC membranes, [3H]-CP-55,940). In short, it runs like this: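 IC50 came from percent-inhibition data over several compound concentrations, fitted by linear regression. Binding used semi-purified membranes of human CB2-transfected SK-N-MC cells, 90 min at 30 °C, pH 7.5 Tris-HCl with MgCl2, EDTA and BSA, then filtration and scintillation counting.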

Where [1] appears, read: Cannabinoid CB1 Receptor Binding IC50, calculated by linear regression from percent inhibition at various test concentrations.
[2] abbreviates: read-out: CB1 receptor binding percent inhibition, test concentration 0.2 μM (footnote 2).
The mark [3] stands for this setting: test concentration 0.2 μM (footnote 2).
Setting [4] is: test concentration 0.2 μM (footnote 2), read-out: CB2 receptor binding percent inhibition.

Results on 20 molecules are retold here after patent US8378117B2 (priority 2005, dated 2013).

As usually defined, the IC50 is the concentration needed to halve the response being measured.

Read-outs that look alike come from different tables or passages of the source.

T1 sequence (P21554 whole entry): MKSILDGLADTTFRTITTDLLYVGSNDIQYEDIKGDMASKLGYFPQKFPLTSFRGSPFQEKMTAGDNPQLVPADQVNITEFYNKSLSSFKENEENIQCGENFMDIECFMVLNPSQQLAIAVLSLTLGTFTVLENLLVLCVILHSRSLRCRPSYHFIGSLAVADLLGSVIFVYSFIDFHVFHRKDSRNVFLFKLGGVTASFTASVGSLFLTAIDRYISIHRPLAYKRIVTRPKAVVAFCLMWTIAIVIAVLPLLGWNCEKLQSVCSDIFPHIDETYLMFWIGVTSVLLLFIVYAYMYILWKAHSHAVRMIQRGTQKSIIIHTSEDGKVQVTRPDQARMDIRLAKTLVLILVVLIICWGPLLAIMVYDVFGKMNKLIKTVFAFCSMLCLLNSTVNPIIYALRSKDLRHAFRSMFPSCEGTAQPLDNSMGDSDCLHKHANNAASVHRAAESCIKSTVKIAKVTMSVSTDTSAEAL

Turning to `COC(=O)[C@@H](Cc1ccc(O)cc1)NC(=O)c1nn(-c2ccc(F)cc2F)c2c1CCCCC2Cc1ccc(F)cc1` (stereo partly drawn) [Cpd 98, (2R)-2-{[1-(2,4-difluoro-phenyl)-8-(4-fluoro-benzyl)-1,4,5,6,7,8-hexahydro-cycloheptapyrazole-3-carbonyl]-amino}-3-(4-hydroxy-phenyl)-propionic acid methyl ester], the inhibition at 1 µM on CB1 receptor was 51%. Further, on CB2 receptor (test concentration not stated), the “CB2 receptor binding percent inhibition” value is 43%.

For `O=C(N[C@@H]1c2ccccc2C[C@@H]1O)c1nn(-c2ccc(F)cc2F)c2c1CCCCC2Cc1cccc(F)c1` (stereo partly drawn) [Cpd 100, 1-(2,4-difluoro-phenyl)-8-(3-fluoro-benzyl)-1,4,5,6,7,8-hexahydro-cycloheptapyrazole-3-carboxylic acid [(1R,2S)-2-hydroxy-indan-1-yl]-amide], at CB1 receptor, the inhibition at 1 µM was found to be 31%. The “CB2 receptor binding percent inhibition” value at CB2 receptor (test concentration not stated) is 9%.

Consider `C[C@H](NS(=O)(=O)/C=C/c1nn(C)c2c1CCCCC2Cc1ccc(F)cc1)c1ccccc1` (stereo partly drawn) [Cpd 101, (2E)-2-[8-(4-fluoro-benzyl)-1-methyl-1,4,5,6,7,8-hexahydro-cycloheptapyrazol-3-yl]-ethenesulfonic acid [(1S)-1-phenyl-ethyl]-amide], for which the inhibition at 1 µM on CB1 receptor was determined as 28%; at CB2 receptor (test concentration 1 μM (footnote 1), read-out: CB2 receptor binding percent inhibition) it was 97%. Moreover, at CB2 receptor (Cannabinoid CB2 Receptor Binding IC50, calculated by linear regression from percent inhibition at various test concentrations), the IC50 was 0.04 µM.

`COC(=O)[C@@H](Cc1ccc(F)cc1)NC(=O)c1nn(-c2ccc(Cl)cc2Cl)c2c1CCCCC2Cc1cccc(Cl)c1` (stereo partly drawn) [Cpd 103, (2R)-2-{[8-(3-chloro-benzyl)-1-(2,4-dichloro-phenyl)-1,4,5,6,7,8-hexahydro-cycloheptapyrazole-3-carbonyl]-amino}-3-(4-fluoro-phenyl)-propionic acid methyl ester]: the IC50 on CB1 receptor (setting [1]) was 0.3 µM. For the same molecule, at CB1 receptor, the inhibition at 0.5 µM came out at 56% and the inhibition at 1 µM came to 76%. In addition, the “CB2 receptor binding percent inhibition” value at CB2 receptor (test concentration not stated) was 57%.

In the case of `CCOC(=O)[C@@H]1C2CCC(C2)[C@@H]1NC(=O)c1nn(C2CCCCC2)c2c1CCCCC2Cc1cccc(F)c1` (stereo partly drawn) [Cpd 105, (2R,3S)-3-{[1-cyclohexyl-8-(3-fluoro-benzyl)-1,4,5,6,7,8-hexahydro-cycloheptapyrazole-3-carbonyl]-amino}-bicyclo[2.2.1]heptane-2-carboxylic acid ethyl ester], the inhibition at 1 µM at CB1 receptor came out at 2%. In addition, the “CB2 receptor binding percent inhibition” value at CB2 receptor (test concentration not stated) came to 82%.

For `CCOC(=O)[C@@H]1C2CCC(C2)[C@@H]1NC(=O)c1nn(C2CCCCC2)c2c1CCCCC2Cc1ccc(F)cc1` (stereo partly drawn) [Cpd 106, (2R,3S)-3-{[1-cyclohexyl-8-(4-fluoro-benzyl)-1,4,5,6,7,8-hexahydro-cycloheptapyrazole-3-carbonyl]-amino}-bicyclo[2.2.1]heptane-2-carboxylic acid ethyl ester], the inhibition at 1 µM on CB1 receptor turned out to be 45%. Further, the “CB2 receptor binding percent inhibition” value at CB2 receptor (test concentration not stated) was determined as 95%.

As to `CCOC(=O)[C@@H]1C2CCC(C2)[C@@H]1NC(=O)c1nn(-c2ccc(Cl)cc2Cl)c2c1CCCCC2Cc1cccc(Cl)c1` (stereo partly drawn) [Cpd 109, (2R,3S)-3-{[8-(3-chloro-benzyl)-1-(2,4-dichloro-phenyl)-1,4,5,6,7,8-hexahydro-cycloheptapyrazole-3-carbonyl]-amino}-bicyclo[2.2.1]heptane-2-carboxylic acid ethyl ester], at CB1 receptor (calculated by linear regression from percent inhibition at various test concentrations, read-out: Cannabinoid CB1 Receptor Binding IC50), the concentration for half-maximal inhibition (IC50) was 0.3 µM. At CB1 receptor, the inhibition at 0.5 µM was determined as 60% and the inhibition at 1 µM was 72%. Also, the “CB2 receptor binding percent inhibition” value at CB2 receptor (test concentration not stated) was 48%.

As to `O=C(N[C@@H]1c2ccccc2C[C@@H]1O)c1nn(-c2ccc(F)cc2F)c2c1CCCCC2Cc1ccc(F)cc1` (stereo partly drawn) [Cpd 119, 1-(2,4-difluoro-phenyl)-8-(4-fluoro-benzyl)-1,4,5,6,7,8-hexahydro-cycloheptapyrazole-3-carboxylic acid [(1R,2S)-2-hydroxy-indan-1-yl]-amide], the inhibition at 1 µM on CB1 receptor was found to be 39%. Moreover, the “CB2 receptor binding percent inhibition” value on CB2 receptor (test concentration not stated) amounted to 38%.

Turning to `Cn1nc(/C=C/S(=O)(=O)NN2CCOCC2)c2c1C(Cc1cccc(F)c1)CCCC2` (stereo not shown) [Cpd 125, (2E)-2-[8-(3-fluoro-benzyl)-1-methyl-1,4,5,6,7,8-hexahydro-cycloheptapyrazol-3-yl]-ethenesulfonic acid morpholin-4-ylamide], the inhibition at 1 µM on CB1 receptor turned out to be 0%. Further, the “CB2 receptor binding percent inhibition” value at CB2 receptor (test concentration not stated) came to 30%.

As for `Cn1nc(/C=C/S(=O)(=O)NN2CCOCC2)c2c1C(Cc1ccc(F)cc1)CCCC2` (stereo not shown) [Cpd 126, (2E)-2-[8-(4-fluoro-benzyl)-1-methyl-1,4,5,6,7,8-hexahydro-cycloheptapyrazol-3-yl]-ethenesulfonic acid morpholin-4-ylamide], the inhibition at 1 µM at CB1 receptor came to 0%. Moreover, on CB2 receptor (test concentration not stated), the “CB2 receptor binding percent inhibition” value amounted to 65%.

`O=S(=O)(/C=C/c1nn(-c2ccc(F)cc2F)c2c1CCCCC2Cc1ccc(F)cc1)NN1CCOCC1` (stereo not shown) [Cpd 127, (2E)-2-[1-(2,4-difluoro-phenyl)-8-(4-fluoro-benzyl)-1,4,5,6,7,8-hexahydro-cycloheptapyrazol-3-yl]-ethenesulfonic acid morpholin-4-ylamide]: the inhibition at 1 µM on CB1 receptor came to 36%. On CB2 receptor (test concentration not stated), the “CB2 receptor binding percent inhibition” value is reported as 0%.

Regarding `O=C(NCc1ccccc1)c1n[nH]c2c1CCCCC2Cc1ccc(F)cc1` (stereo not shown) [Cpd 129, 8-(4-fluoro-benzyl)-1,4,5,6,7,8-hexahydro-cycloheptapyrazole-3-carboxylic acid benzylamide], the inhibition at 0.002 µM at CB1 receptor is 92%. For the same molecule, at CB1 receptor (read-out: CB1 receptor binding percent inhibition, test concentration 0.008 μM (footnote 12)), the inhibition at 0.008 µM was 90%. Besides, the inhibition at 0.25 µM at CB1 receptor (read-out: CB1 receptor binding percent inhibition, test concentration 0.25 μM (footnote 8)) was 100%; on CB2 receptor (test concentration 0.25 μM (footnote 8), read-out: CB2 receptor binding percent inhibition), 86%. For the same molecule, the “CB1 receptor binding percent inhibition” value at CB1 receptor is 94%.

Turning to `C[C@H](NC(=O)c1nn(-c2ccc(Cl)cc2Cl)c2c1CCCC/C2=C\c1ccc(Cl)cc1)c1ccccc1` [Cpd 139, (8E)-8-(4-chloro-benzylidene)-1-(2,4-dichloro-phenyl)-1,4,5,6,7,8-hexahydro-cycloheptapyrazole-3-carboxylic acid [(1S)-1-phenyl-ethyl]-amide], at CB1 receptor (setting [1]), the IC50 is 0.05 µM. Besides, the inhibition at 0.2 µM stood at 72% at CB1 receptor (setting [2]) and 30% on CB2 receptor (read-out: CB2 receptor binding percent inhibition, test concentration 0.2 μM (footnote 2)).

In the case of `C[C@@H](NC(=O)c1n[nH]c2c1CCCC/C2=C\c1ccc(Cl)cc1)C1CCCCC1` [Cpd 140, (8E)-8-(4-chloro-benzylidene)-1,4,5,6,7,8-hexahydro-cycloheptapyrazole-3-carboxylic acid [(1R)-1-cyclohexyl-ethyl]-amide], the IC50 at CB1 receptor (setting [1]) is 0.006 µM. Further, the inhibition at 0.2 µM at CB1 receptor (setting [2]) came to 97%. Moreover, the “CB2 receptor binding percent inhibition” value at CB2 receptor (setting [3]) is reported as “^(2)100%”.

Regarding `C[C@H](NC(=O)c1n[nH]c2c1CCCC/C2=C\c1ccc(Cl)cc1)c1ccccc1` [Cpd 141, (8E)-8-(4-chloro-benzylidene)-1,4,5,6,7,8-hexahydro-cycloheptapyrazole-3-carboxylic acid [(1S)-1-phenyl-ethyl]-amide], at CB1 receptor (setting [1]), the IC50 was 0.006 µM. Further, the inhibition at 0.2 µM at CB1 receptor (read-out: CB1 receptor binding percent inhibition) came out at 95%. Also, the “CB2 receptor binding percent inhibition” value on CB2 receptor (setting [3]) is listed as “^(2)97%”.

`C[C@H](NC(=O)c1n[nH]c2c1CCCC/C2=C\c1ccc(Cl)cc1)C1CCCCC1` [Cpd 143, (8E)-8-(4-chloro-benzylidene)-1,4,5,6,7,8-hexahydro-cycloheptapyrazole-3-carboxylic acid [(1S)-1-cyclohexyl-ethyl]-amide]: on CB1 receptor (setting [1]), the IC50 is 0.002 µM. At CB1 receptor, the inhibition at 0.002 µM turned out to be 55% and the “CB1 receptor binding percent inhibition” value is given as 77%. For the same molecule, the inhibition at 0.2 µM at CB1 receptor (setting [2]) came out at 99%. In addition, on CB2 receptor (setting [3]), the “CB2 receptor binding percent inhibition” value is listed as “^(2)100%”.

With `O=C(NN1CCCCC1)c1n[nH]c2c1CCCC/C2=C\c1ccc(Cl)cc1` [Cpd 144, (8E)-8-(4-chloro-benzylidene)-1,4,5,6,7,8-hexahydro-cycloheptapyrazole-3-carboxylic acid piperidin-1-ylamide], on CB1 receptor (setting [1]), the IC50 was 0.03 µM. At CB1 receptor (setting [2]), the inhibition at 0.2 µM amounted to 69%. For the same molecule, at CB2 receptor (setting [3]), the “CB2 receptor binding percent inhibition” value was “^(2)90%”.

For `O=C(NN1CCOCC1)c1n[nH]c2c1CCCC/C2=C\c1ccc(Cl)cc1` [Cpd 145, (8E)-8-(4-chloro-benzylidene)-1,4,5,6,7,8-hexahydro-cycloheptapyrazole-3-carboxylic acid morpholin-4-ylamide], the inhibition at 0.2 µM is 54% at CB1 receptor (setting [2]) and 68% on CB2 receptor (setting [4]).

For the molecule `O=C(Nc1ccncc1)c1nn(-c2ccc(Cl)cc2Cl)c2c1CCCC/C2=C\c1ccc(Cl)cc1` [Cpd 153, (8E)-8-(4-chloro-benzylidene)-1-(2,4-dichloro-phenyl)-1,4,5,6,7,8-hexahydro-cycloheptapyrazole-3-carboxylic acid pyridin-4-ylamide], the inhibition at 0.2 µM at CB1 receptor (setting [2]) stood at 44%; on CB2 receptor (setting [4]), 0%.

`NS(=O)(=O)c1ccc(NC(=O)c2nn(-c3ccc(Cl)cc3Cl)c3c2CCCC/C3=C\c2ccc(Cl)cc2)cc1` [Cpd 154, (8E)-8-(4-chloro-benzylidene)-1-(2,4-dichloro-phenyl)-1,4,5,6,7,8-hexahydro-cycloheptapyrazole-3-carboxylic acid (4-sulfamoyl-phenyl)-amide]: the inhibition at 0.2 µM was determined as 33% on CB1 receptor (setting [2]) and 7% at CB2 receptor (setting [4]).
